Test results: ChEMBL document CHEMBL6109168, “Novel Compounds as 5-HT2A Receptor Modulators for Treating Psychiatric and Neurological Disorders” (ACS Med Chem Lett, 2025)

The molecules below were run against 5-hydroxytryptamine receptor 2A (Homo sapiens, UniProt P28223) (assay: Agonist activity at human 5HT2A receptor expressed in HEK293 cells assessed as IP1 accumulation by HTRF assay).
Format: functional, cell-based

Sequence of 5-hydroxytryptamine receptor 2A (P28223 whole entry): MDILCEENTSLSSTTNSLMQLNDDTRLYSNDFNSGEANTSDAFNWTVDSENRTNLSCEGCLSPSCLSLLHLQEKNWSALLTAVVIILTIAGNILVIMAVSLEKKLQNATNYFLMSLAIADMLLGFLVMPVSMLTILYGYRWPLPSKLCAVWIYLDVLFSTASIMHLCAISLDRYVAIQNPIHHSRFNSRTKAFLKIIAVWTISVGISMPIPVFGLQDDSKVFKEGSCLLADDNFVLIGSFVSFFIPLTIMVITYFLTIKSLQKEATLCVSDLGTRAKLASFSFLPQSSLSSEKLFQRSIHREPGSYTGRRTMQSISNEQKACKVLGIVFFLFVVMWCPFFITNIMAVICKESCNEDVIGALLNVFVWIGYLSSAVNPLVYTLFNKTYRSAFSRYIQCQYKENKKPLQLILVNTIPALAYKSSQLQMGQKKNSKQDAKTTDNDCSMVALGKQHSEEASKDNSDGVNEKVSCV

Question: With `N#Cc1c(F)ccc2c(C3=CCCNC3)c[nH]c12` as the molecule, how does the EC50 read?
Answer: < 100 nM

Question: Which EC50 does the source give for `C1=C(c2csc3ccccc23)CNCC1` here?
Answer: < 100 nM

Question: How did the EC50 turn out when `N#Cc1cc(F)cc2c(C3=CCCNC3)c[nH]c12` was run?
Answer: < 100 nM

Question: How did the EC50 turn out when `Oc1cccc2[nH]cc(C3=CCCNC3)c12` was run?
Answer: < 100 nM

Question: Which EC50 does the source give for `Fc1ccc2c(C3=CCCNC3)n[nH]c2c1F` here?
Answer: < 100 nM

Question: With `COc1cc(Cl)c2[nH]cc(C3=CCCNC3)c2c1` as the molecule, how does the EC50 read?
Answer: < 100 nM
